Consider 28 compounds from patent US20100022541A1, “Chemical inhibitors of bacterial heptose synthesis, methods for their preparation and biological applications of said inhibitors” (priority 2006, published 2010).

What is called pIC50 is the IC50 on a negative log10 scale, so that one unit is a factor of ten. Low readings indicate a large IC50, high ones a small IC50.

pIC50: −log10 of the molar value.

T1 sequence (P76658 whole entry): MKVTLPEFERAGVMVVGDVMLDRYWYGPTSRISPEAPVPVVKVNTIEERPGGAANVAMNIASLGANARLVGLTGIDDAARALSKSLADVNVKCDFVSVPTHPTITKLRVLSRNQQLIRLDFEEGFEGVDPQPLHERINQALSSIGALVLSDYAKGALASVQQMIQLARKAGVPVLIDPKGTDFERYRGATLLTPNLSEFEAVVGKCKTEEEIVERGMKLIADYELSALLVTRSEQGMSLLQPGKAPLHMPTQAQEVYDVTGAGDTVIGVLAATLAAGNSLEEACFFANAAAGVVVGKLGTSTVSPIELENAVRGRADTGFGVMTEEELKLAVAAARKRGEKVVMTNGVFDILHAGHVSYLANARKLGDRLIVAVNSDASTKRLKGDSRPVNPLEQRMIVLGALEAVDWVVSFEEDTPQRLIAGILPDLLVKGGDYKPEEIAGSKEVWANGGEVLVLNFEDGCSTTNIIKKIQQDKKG

The first assay has as its target T1, RfaE (Escherichia coli, UniProt P76658).
T1 construct: made in house; host or cells: E. coli
Briefly: Inhibition of the enzymatic activity of RfaE (HTS luminescent or fluorescent biochemical assay). Details: species or system E. coli. The conditions noted are these: dose-response, FIG. 1. On the procedure:
According to another object, the invention also relates to a method for assessing RfaE enzymatic activity. • Said method comprises • pre-incubating at room temperature • DMSO or inhibitor to be tested dissolved in DMSO and RfaE in an assay buffer • and either • adding a reaction mixture composed of RfaE, β-heptose-7-phosphate, ATP, in the assay buffer and incubating at room temperature • adding a revelation mixture composed of luciferase, D-luciferin and N-acetylcysteamine • measuring the luminescence intensity and converting into inhibition % to further calculate the IC50 values; • or • adding a reaction mixture composed of RfaE, β-heptose-7-phosphate ATP, pyruvate kinase, phosphoenolpyruvate, lactate dehydrogenase and NADH in said assay buffer, • measuring the fluorescence intensity of NADH kinetically and deriving inhibition % from fitted initial velocities, to further calculate the IC50 values.
Inhibition of the Enzymatic Activity of RfaE
RfaE is a kinase belonging to the ribokinase family. It catalyses an essential step of the biosynthesis of L-ADP-Heptose, namely the phosphorylation of β-heptose-7-phosphate (H7P) into β-heptose-1,7-bisphosphate (H17P). RfaE assays as described in the literature are essentially based on direct HLPC detection of the substrates H7P and ATP, and of the products H17P and ADP, raising obvious limitations for HTS applications. The assays described below are based either on luminescent ATP detection, or on fluorescent ADP detection. They are easily amenable to miniaturized formats and fast readouts as required by HTS.
The assay buffer “AB” contains 50 mM Hepes pH7.5, 1 mM MnCl2, 25 mM KCl, 0.012% Triton-X100 and 1 mM DTT. The following components are added in a white polystyrene Costar plate up to a final volume of 31 μL: 3 μL DMSO, or inhibitor dissolved in DMSO and 28 μL RfaE in AB. After 30 min of pre-incubation at room temperature, 29 μL of Substrates mix in AB are added in each well to a final volume of 60 μL. This reaction mixture is then composed of 3 nM RfaE (produced in house from E. coli), 0.2 μM β-heptose-7-phosphate (in house synthesis) and 0.2 μM ATP (Sigma) in assay buffer. After 40 min of incubation at room temperature, 200 μL of the revelation mix are added to a final volume of 260 μL, including the following constituents at the respective final concentrations: 2 nM luciferase (Sigma), 30 μM D-luciferin (Sigma), 100 μM N-acetylcysteamine (Aldrich). Luminescence intensity is immediately measured on an Analyst-HT (Molecular Devices) and converted into inhibition percentages. For IC50 determinations, the inhibitor is tested at 6 to 10 different concentrations, and the related inhibitions are fitted to a classical langmuir equilibrium model using XLFIT (IDBS).
The assay buffer “AB” contains 50 mM Hepes pH7.5, 1 mM MnCl2, 25 mM KCl, 0.012% Triton-X100 and 1 mM DTT. The following components are added in a black polystyrene Costar plate up to a final volume of 50 μL: 5 μL DMSO, or inhibitor dissolved in DMSO and 45 μL RfaE in AB. After 30 min of pre-incubation at room temperature, 50 μL of Substrates-revelation mix in AB are added in each well to a final volume of 100 μL. This reaction mixture is then composed of 66 μM RfaE (produced in house from E. coli), 1 μM β-heptose-7-phosphate (in house synthesis), 50 μM ATP (Sigma), 5 u/mL Pyruvate Kinase (Sigma), 50 μM phosphoenolpyruvate (Sigma), 5 u/mL Lactate dehydrogenase (Sigma) and 2.5 μM NADH (Sigma) in assay buffer. Fluorescence intensity of NADH (λex=360 nm, λem=520 nm) is immediately measured kinetically by a Fluostar Optima (BMG). Inhibition percentages are derived from fitted initial velocities. For IC50 determinations, the inhibitor is tested at 6 to 10 different concentrations, and the related inhibitions are fitted to a classical langmuir equilibrium model using XLFIT (IDBS).
As to `Cc1oc(-c2cccc([N+](=O)[O-])c2)nc1C(=O)N(CC(=O)O)Cc1ccccn1` [Example XXIII, [{[5-methyl-2-(3-nitrophenyl)-1,3-oxazol-4-yl]carbonyl}(pyridin-2-ylmethyl)amino]acetic Acid], the “Inhibition of RfaE biochemical activity (FIG. 1)” value is “Dose Dependent Inhibition”.

The assay is the same for the next values; noted with them: inhibitor tested at 6 to 10 concentrations; 30 min pre-incubation at room temperature.
`Cn1nc(-c2ccccc2)cc1C(=O)N(CC(=O)O)Cc1ccccn1` [VIII, [[(1-methyl-3-phenyl-1H-pyrazol-5-yl)carbonyl](pyridin-2-ylmethyl)amino]acetic Acid] had a negative logarithm of the IC50 (pIC50) of 4.24. `Cc1nn(-c2ccccc2)nc1C(=O)N(CC(=O)O)Cc1ccccn1` [XI, [[(5-methyl-2-phenyl-2H-1,2,3-triazol-4-yl)carbonyl](pyridin-2-ylmethyl)amino]acetic Acid]: the negative-log IC50 (pIC50) is 4.32. Compound `Cc1nc(-c2ccc(Cl)cc2)oc1C(=O)N(CC(=O)O)Cc1ccccn1` [V, [{[2-(4-chlorophenyl)-4-methyl-1,3-oxazol-5-yl]carbonyl}(pyridin-2-ylmethyl)amino]acetic acid] had a pIC50 of 4.27. The pIC50 values of the last two compounds are within 0.2 log units of each other. On the same count and under the same terms, for `O=C(O)CN(Cc1ccccn1)C(=O)c1nc(-c2ccccc2)oc1CN1CCOCC1` [II, [{[5-(morpholin-4-ylmethyl)-2-phenyl-1,3-oxazol-4-yl]carbonyl}(pyridin-2-ylmethyl)amino]acetic Acid] the value was 3.71. In turn, `Cc1cccc(C)c1-c1nc(C)c(C(=O)N(CC(=O)O)Cc2nc3ccccc3s2)s1` [XL, ((1,3-benzothiazol-2-ylmethyl){[4-methyl-2-(2,6-dimethylphenyl)-1,3-thiazol-5-yl]carbonyl}amino)acetic Acid] had a negative logarithm of the IC50 (pIC50) of 4.30. This pIC50 is 0.59 log units higher than that of the compound before. `Cc1oc(-c2cccc(C(F)(F)F)c2)nc1C(=O)N(CC(=O)O)Cc1ccccn1` [XIV, [({5-methyl-2-[3-(trifluoromethyl)phenyl]-1,3-oxazol-4-yl}carbonyl)(pyridin-2-ylmethyl)amino]acetic Acid] had a pIC50 of 4.46. As for `CC(=O)c1cccc(-c2nc(C)c(C(=O)N(CC(=O)O)Cc3ccccn3)s2)c1` [XXXVI, [{[2-(3-acetylphenyl)-4-methyl-1,3-thiazol-5-yl]carbonyl}(pyridin-2-ylmethyl)amino]acetic Acid], the pIC50 was 3.67. On to `Cc1nc(-c2ccccc2)oc1C(=O)N(CC(=O)O)Cc1ccccn1` [VI, [[(4-methyl-2-phenyl-1,3-oxazol-5-yl)carbonyl](pyridin-2-ylmethyl)amino]acetic Acid], for which the pIC50 is 4.15. The same measure, in the same setting: for `Cc1oc(-c2cccc([N+](=O)[O-])c2)nc1C(=O)N(CC(=O)O)Cc1ccccn1` [Example XXIII, [{[5-methyl-2-(3-nitrophenyl)-1,3-oxazol-4-yl]carbonyl}(pyridin-2-ylmethyl)amino]acetic Acid] the value was 5.42; for `Cc1oc(-c2cccc(Br)c2)nc1C(=O)N(CC(=O)O)Cc1ccccn1` [XVIII, [{[2-(3-bromophenyl)-5-methyl-1,3-oxazol-4-yl]carbonyl}(pyridin-2-ylmethyl)amino]acetic Acid], 5.00; for `Cc1nc(-c2ccc3ccccc3c2)sc1C(=O)N(CC(=O)O)Cc1nc2ccccc2s1` [XLI, ((1,3-benzothiazol-2-ylmethyl){[4-methyl-2-(2-naphthyl)-1,3-thiazol-5-yl]carbonyl}amino)acetic Acid], 6.32. The compound `O=C(O)CN(Cc1ccccn1)C(=O)c1nc(-c2ccccc2)oc1C(F)(F)F` [XIII, [{[2-phenyl-5-(trifluoromethyl)-1,3-oxazol-4-yl]carbonyl}(pyridin-2-ylmethyl)amino]acetic Acid] gave a pIC50 of 4.10. In turn, `Cc1oc(-c2ccccc2)nc1C(=O)N(CC(=O)O)Cc1nccs1` [XXXIII, [[(5-methyl-2-phenyl-1,3-oxazol-4-yl)carbonyl](1,3-thiazol-2-ylmethyl)amino]acetic Acid] had a pIC50 of 3.96.

As for `Cc1oc(-c2ccccc2)cc1C(=O)N(CC(=O)O)Cc1ccccn1` [Example X, [(2-methyl-5-phenyl-3-furoyl)(pyridin-2-ylmethyl)amino]acetic Acid], the pIC50 is 4.38.

As to `Cc1oc(-c2ccc(N)cc2)nc1C(=O)N(CC(=O)O)Cc1ccccn1` [XXVII, [{[2-(4-aminophenyl)-5-methyl-1,3-oxazol-4-yl]carbonyl}(pyridin-2-ylmethyl)amino]acetic Acid], the negative-log IC50 (pIC50) is 4.66. In turn, `O=C(O)CN(Cc1ccccn1)C(=O)c1ccc(-c2ccccc2)o1` [VII, [(5-phenyl-2-furoyl)(pyridin-2-ylmethyl)amino]acetic Acid] had a pIC50 of 4.00. `Cc1oc(-c2ccccc2C(F)(F)F)nc1C(=O)N(CC(=O)O)Cc1ccccn1` [XV, [({5-methyl-2-[2-(trifluoromethyl)phenyl]-1,3-oxazol-4-yl}carbonyl)(pyridin-2-ylmethyl)amino]acetic Acid] had a pIC50 of 3.92.

`Cc1oc(-c2ccccc2[N+](=O)[O-])nc1C(=O)N(CC(=O)O)Cc1ccccn1` [Example XXII, [{[5-methyl-2-(2-nitrophenyl)-1,3-oxazol-4-yl]carbonyl}(pyridin-2-ylmethyl)amino]acetic Acid] had a pIC50 of 3.85.

In the case of `COc1cccc(-c2nc(C)c(C(=O)N(CC(=O)O)Cc3nc4ccccc4s3)o2)c1` [XXIX, ((1,3-benzothiazol-2-ylmethyl){[2-(3-methoxyphenyl)-4-methyl-1,3-oxazol-5-yl]carbonyl}amino)acetic Acid], the pIC50 is 6.62. Against the preceding compound, the pIC50 is 2.77 log units higher.

In the case of `COc1ccc(-c2nc(C(=O)N(CC(=O)O)Cc3ccccn3)c(C)o2)cc1` [Example XXI, [{[2-(4-methoxyphenyl)-5-methyl-1,3-oxazol-4-yl]carbonyl}(pyridin-2-ylmethyl)amino]acetic Acid], the pIC50 was 4.12. This pIC50 lies 2.50 log units lower than the previous one.

As to `Cc1nc(-c2cccc([N+](=O)[O-])c2)sc1C(=O)N(CC(=O)O)Cc1nc2ccccc2s1` [XXXIX, ((1,3-benzothiazol-2-ylmethyl){[4-methyl-2-(3-nitrophenyl)-1,3-thiazol-5-yl]carbonyl}amino)acetic Acid], the pIC50 is 6.30. In the case of `COc1cccc(-c2nc(C)c(C(=O)N(CC(=O)O)Cc3ccccn3)o2)c1` [III, [{[2-(3-methoxyphenyl)-4-methyl-1,3-oxazol-5-yl]carbonyl}(pyridin-2-ylmethyl)amino]acetic Acid], the negative logarithm of the IC50 (pIC50) is 4.77.

Compound `COc1cccc(-c2nc(C)c(C(=O)N(CC(=O)O)C(C)c3ccccn3)o2)c1` (centres unmarked) [XXXV, [{[2-(3-methoxyphenyl)-4-methyl-1,3-oxazol-5-yl]carbonyl}(1-pyridin-2-ylethyl)amino]acetic Acid] gave a pIC50 of 4.72.

Consider `Cc1oc(-c2ccccc2)nc1C(=O)N(CC(=O)O)Cc1ccccn1` [XII, [[(5-methyl-2-phenyl-1,3-oxazol-4-yl)carbonyl](pyridin-2-ylmethyl)amino]acetic Acid], for which the negative logarithm of the IC50 (pIC50) is 4.29. Compound `COc1cccc(-c2nc(C(=O)N(CC(=O)O)Cc3ccc4ccccc4n3)c(C)o2)c1` [XXXIV, [{[2-(3-methoxyphenyl)-5-methyl-1,3-oxazol-4-yl]carbonyl}(quinolin-2-ylmethyl)amino]acetic Acid] had a negative logarithm of the IC50 (pIC50) of 4.92. Compared with the last compound, the pIC50 is 0.63 log units higher.

The compound `Cc1nc(-c2ccccc2)sc1C(=O)N(CC(=O)O)Cc1ccccn1` [IX, [[(4-methyl-2-phenyl-1,3-thiazol-5-yl)carbonyl](pyridin-2-ylmethyl)amino]acetic Acid] gave a pIC50 of 4.28. The same measure, in the same setting: the result for `COc1cccc(-c2nc(C)c(C(=O)N(CC(=O)O)Cc3nc4cc(OC)ccc4s3)o2)c1` [XXX, ((5-methoxy-1,3-benzothiazol-2-ylmethyl){[2-(3-methoxyphenyl)-4-methyl-1,3-oxazol-5-yl]carbonyl}amino)acetic Acid] reads 5.96; that for “[{[2-(4-bromophenyl)-5-methyl-1,3-oxazol-4-yl]carbonyl}(pyridin-2-ylmethyl)amino]acetic Acid [XVII]”, 4.57.
